Reference: patent US20110039770A1, “INHIBITORS OF PROTEIN KINASE C ISOFORMS AND USES THEREOF” (PHARMAGAP INC., priority 2005, published 2011)
Where a SMILES comes first, the peptide text is derived from it.

How the values were obtained:
PKC-βII = PKC-βII (Homo sapiens, UniProt P05771); assay: Competition of PRE with PKC-βII antibody binding, Protocol B, IMR-32; set-up: PKC-βII by PRE 3 and PRE 4 in IMR-32 Neuroblastoma; endogenous in cells; host or cells: IMR-32 human neuroblastoma cells; details: Protocol B (control 98.6)
Chain of PKC-βII (P05771 1-673 isoform P05771-2): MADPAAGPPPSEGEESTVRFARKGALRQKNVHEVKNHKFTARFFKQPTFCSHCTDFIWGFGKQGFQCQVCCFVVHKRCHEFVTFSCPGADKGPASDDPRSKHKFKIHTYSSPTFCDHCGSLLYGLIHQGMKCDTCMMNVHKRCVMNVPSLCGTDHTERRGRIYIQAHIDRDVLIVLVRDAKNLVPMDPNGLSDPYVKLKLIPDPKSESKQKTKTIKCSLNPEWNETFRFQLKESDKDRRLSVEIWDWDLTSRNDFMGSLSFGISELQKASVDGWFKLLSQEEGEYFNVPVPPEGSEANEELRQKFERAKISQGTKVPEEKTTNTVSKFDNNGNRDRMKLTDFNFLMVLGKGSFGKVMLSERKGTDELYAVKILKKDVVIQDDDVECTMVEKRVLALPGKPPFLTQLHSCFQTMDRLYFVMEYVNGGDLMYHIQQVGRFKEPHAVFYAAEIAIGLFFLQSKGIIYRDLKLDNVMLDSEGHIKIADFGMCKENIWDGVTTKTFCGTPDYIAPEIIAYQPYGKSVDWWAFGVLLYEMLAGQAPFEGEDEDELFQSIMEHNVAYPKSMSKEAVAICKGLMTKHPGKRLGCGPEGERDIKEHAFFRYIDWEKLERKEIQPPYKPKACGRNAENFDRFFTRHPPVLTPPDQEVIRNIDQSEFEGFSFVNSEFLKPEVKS
Description: (§1) The ability of the peptides PRE 2 and PRE 3 (see Table 4) to interfere with the binding of a PKC-α-specific polyclonal antibody (Santa Cruz Biotechnology, Inc.) to PKC-α was determined using a modified version of the protocol outlined above in which the test peptide was added directly to the cell extract prior to electrophoresis at a concentration of either 5× or 15× the concentration of the protein applied to each well of the gel for the Western blots (20 μg).
(§2) Peptides PRE 3 and PRE 4 (see Table 4) were tested for their ability to interfere with the binding of isoform-specific polyclonal antibodies (Santa Cruz Biotechnology, Inc.) to PKC-α, PKC-βI or PKC-βII using the general protocol described in Example 3.

PKC-α [1] = biological target: T1, PKC-α (Homo sapiens, UniProt P17252); assay: Competition of PRE with PKC-α antibody binding on Western blot, Protocol A, IMR-32 lysate; set-up: endogenous PKC-α in (A) untreated human neuroblastoma (IMR-32) cells; endogenous in cells; host or cells: IMR-32 human neuroblastoma cells; details: IMR-32 cells
Description: The ability of the PRE 1, 2 and 3 (see Table 3 above) to interfere with the binding of a PKC-α-specific polyclonal antibody to PKC-α was determined using the following protocol.
(§3) Cell lysates from either IMR-32 (human neuroblastoma) cells or C6Cx43 cells (rat glioma transfected cells overexpressing connexin 43) were obtained using standard protocols and the proteins of the lysate were separated by SDS PAGE electrophoresis and electrotransferred onto a nitrocellulose membrane. The membrane was incubated for 30 minutes in blocking buffer (TBST) containing the test peptide at either 5× or 20× the concentrations of the primary antibody. A primary polyclonal antibody specific for PKC-α (Santa Cruz Biotechnology, Inc., CA) was then added (15 μg/ml) and the membrane incubated for a further 45 minutes. Finally, the primary antibody was detected with a secondary antibody conjugated to alkaline phosphatase using standard procedures. The intensity of the band corresponding to PKC-α was assessed by scanning and densitometry using the Gel-Pro software (Media Cybernetics) to obtain relative band intensities (average of 3 replicas). Control assays were conducted as described above except that blocking buffer without peptide was used.
The results are expressed as relative band intensity and as a percentage of the intensity of the corresponding band in the control assay (“Relative intensity (%)”). “% inhibition” relates to the percentage of the PKC-α band that is inaccessible to the antibody.

PKC-ε = assay: Competition of PRE with PKC-ε antibody binding, Protocol B, IMR-32; set-up: species or system human
Description: Peptides PRE 2, PRE 3 and PRE 4 (see Table 4) were tested for their ability to interfere with the binding of isoform-specific polyclonal antibodies (Santa Cruz Biotechnology, Inc.) to […] using the general protocol described in Example 3. Two bands, representing alternate splicing variants of PKC-ε, were identified on the Western blot using this anti-PKC-ε antibody.

PKC-α [2] = biological target: T1, PKC-α; assay: Subcellular localisation of PKC-α in IMR-32 cells; assay type: cell-based; set-up: endogenous PKC-α in (A) untreated human neuroblastoma (IMR-32) cells; endogenous in cells; host or cells: IMR-32 human neuroblastoma cells; details: 10 mg/ml, pinocytic endocytosis
Description: Peptides PRE 3 or PRE 4 (10 mg/ml) were introduced into human neuroblastoma cells (IMR-32) by pinocytic endocytosis. The cells were fixed and stained with rabbit PKC-α primary antibody and anti-rabbit Alexa-488 or Alexa-800 secondary antibody.

PKC-α [3] = biological target: T1, PKC-α; assay: Competition of PRE with PKC-α antibody binding, Protocol B (peptide added to cell extract before electrophoresis), IMR-32; set-up: endogenous PKC-α in (A) untreated human neuroblastoma (IMR-32) cells; endogenous in cells; host or cells: IMR-32 human neuroblastoma cells
Description: as §2

PKC-β = biological target: T2, PKC-β (Homo sapiens, UniProt P05771); assay: Competition of PRE with PKC-β antibody binding, Protocol A, IMR-32 lysate
T2 construct: PRE 2 and PRE 3 in IMR-32 Neuroblastoma Cells: Protocol A; endogenous in cells; host or cells: IMR-32 human neuroblastoma cells
T2 sequence (P05771 whole entry): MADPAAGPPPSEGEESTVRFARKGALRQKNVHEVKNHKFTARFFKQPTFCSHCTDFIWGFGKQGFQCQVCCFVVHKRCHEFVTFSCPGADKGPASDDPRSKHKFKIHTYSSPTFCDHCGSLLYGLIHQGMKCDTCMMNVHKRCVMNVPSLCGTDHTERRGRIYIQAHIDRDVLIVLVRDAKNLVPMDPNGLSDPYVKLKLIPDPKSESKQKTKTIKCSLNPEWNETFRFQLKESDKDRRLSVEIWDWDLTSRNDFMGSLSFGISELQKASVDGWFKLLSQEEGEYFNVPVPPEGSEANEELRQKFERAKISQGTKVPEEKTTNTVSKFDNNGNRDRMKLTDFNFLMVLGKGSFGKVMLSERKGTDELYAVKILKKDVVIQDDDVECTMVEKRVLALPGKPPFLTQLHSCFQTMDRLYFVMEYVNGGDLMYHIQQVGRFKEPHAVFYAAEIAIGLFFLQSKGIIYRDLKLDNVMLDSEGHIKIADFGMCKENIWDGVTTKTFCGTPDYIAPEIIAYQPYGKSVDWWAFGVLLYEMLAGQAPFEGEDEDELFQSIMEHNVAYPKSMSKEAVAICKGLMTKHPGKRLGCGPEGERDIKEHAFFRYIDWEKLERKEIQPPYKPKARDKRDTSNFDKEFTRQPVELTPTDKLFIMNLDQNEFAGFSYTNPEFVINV
Description: as §3
Peptides PRE 1, PRE 2 and PRE 3 (see Table 4) were tested for their ability to interfere with the binding of a PKC-β-specific polyclonal antibody (Santa Cruz Biotechnology, Inc.) to PKC-β using the general protocol described in Example 1. […] It is worth noting in this regard that PKC-α and PKC-β belong to the same sub-group of PKCs (cPKCs).

PKC-βI = PKC-βI (Homo sapiens, UniProt P05771); assay: Competition of PRE with PKC-βI antibody binding, Protocol B, IMR-32; set-up: PKC-βII by PRE 3 and PRE 4 in IMR-32 Neuroblastoma; endogenous in cells; host or cells: IMR-32 human neuroblastoma cells; details: for Band Intensity: Protocol B (control 170.5)
Chain of PKC-βI (P05771 whole entry): as above
Description: as §1, §2

[4] = 100 μg, Example 5 (control 302.5)
[5] = 200 μg, Example 5 (control 302.5)
[6] = 300 μg, Example 5 (control 302.5)

Band Intensity (PKC-βII; 100 μg)	Band Intensity (PKC-βII; 200 μg)	Band Intensity (PKC-βII; 300 μg)	Band Intensity (PKC-α [1]; 75 μg)	Band Intensity (PKC-α [1]; 300 μg)	Inhibition (%) (PKC-ε; 20 μg, PKC-ε Band 1)	Relative Intensity (%) (PKC-ε; 20 μg, PKC-ε Band 1)	Inhibition (%) (PKC-ε; 20 μg, PKC-ε Band 2)	Relative Intensity (%) (PKC-ε; 20 μg, PKC-ε Band 2)	Inhibition (%) (PKC-ε; 50 μg, PKC-ε Band 1)	Relative Intensity (%) (PKC-ε; 50 μg, PKC-ε Band 1)	Inhibition (%) (PKC-ε; 50 μg, PKC-ε Band 2)	Relative Intensity (%) (PKC-ε; 50 μg, PKC-ε Band 2)	Inhibition (%) (PKC-ε; 100 μg, PKC-ε Band 1)	Relative Intensity (%) (PKC-ε; 100 μg, PKC-ε Band 1)	Inhibition (%) (PKC-ε; 100 μg, PKC-ε Band 2)	Relative Intensity (%) (PKC-ε; 100 μg, PKC-ε Band 2)	Band Intensity (PKC-α [3]; [4])	Band Intensity (PKC-α [3]; [5])	Compound	effect on subcellular localisation of PKC-α (PKC-α [2])	other results
0.0	0.0	0.0	0.889	0.922	99.0%	0.12%	100.0%	0.0%	100.0%	0.0%	100.0%	0.0%	100.0%	0.0%	100.0%	0.0%	0.0	0.0	CC[C@H](C)[C@H](NC(=O)[C@H](CO)NC(=O)[C@@H](NC(=O)CNC(=O)[C@@H](NC(=O)[C@H](CC(C)C)NC(=O)[C@H](CC(N)=O)NC(=O)[C@H](CCC(N)=O)NC(=O)[C@H](C)NC(=O)[C@H](CC(=O)O)NC(=O)CNC(=O)CNC(=O)[C@H](CCCCN)NC(=O)[C@@H](NC(=O)[C@H](CCC(=O)O)NC(=O)[C@H](CCC(N)=O)NC(=O)[C@@H](NC(=O)CNC(=O)[C@H](CCCCN)NC(=O)[C@H](C)NC(C)=O)[C@@H](C)CC)C(C)C)[C@@H](C)CC)[C@@H](C)CC)C(N)=O [PRE 3] (Ac-AKGIQEVKGGDAQNLIGISI-NH2)	does not alter the subcellular localisation of PKC-α	Band Intensity (PKC-α [3]; 100 μg, Example 3 (control 0.759)): 0.0; Band Intensity (PKC-α [3]; 200 μg, Example 3 (control 0.759)): 0.0; Band Intensity (PKC-α [3]; 300 μg, Example 3 (control 0.759)): 0.0; Band Intensity (PKC-α [3]; [6]): 0.0; Band Intensity (PKC-β; 75 μg): 1.900; Inhibition (%) (PKC-β; 75 μg): 0.0%; remaining activity at 0.075 mg (PKC-β; 75 μg, read-out: Relative Intensity (%)): 102%; Band Intensity (PKC-β; 300 μg): 1.900; Inhibition (%) (PKC-β; 300 μg): 0.0%; remaining activity at 0.3 mg (PKC-β; 300 μg, read-out: Relative Intensity (%)): 102%; Band Intensity (PKC-β; 600 μg): 1.847; Inhibition (%) (PKC-β; 600 μg): 0.0%; remaining activity at 0.6 mg (PKC-β; 600 μg, read-out: Relative Intensity (%)): 99.6%; Band Intensity (PKC-βI; 100 μg): 0.0; Relative Intensity (%) (PKC-βI; 200 μg, Protocol B): 0.0%; Band Intensity (PKC-βI; 200 μg): 0.0; Band Intensity (PKC-βI; 300 μg): 0.0
69.58	0.0	0.0	–	–	42.9%	57.1%	46.6%	53.33%	100.0%	0.0%	100.0%	0.0%	100.0%	0.0%	100.0%	0.0%	32.2	1.5	CC[C@H](C)[C@H](NC(=O)[C@H](CO)NC(=O)[C@@H](NC(=O)CNC(=O)[C@@H](NC(=O)[C@H](CC(C)C)NC(=O)[C@H](CC(N)=O)NC(=O)[C@H](CCC(N)=O)NC(=O)[C@H](C)NC(=O)[C@H](CC(=O)O)NC(=O)[C@H](CCCCN)NC(C)=O)[C@@H](C)CC)[C@@H](C)CC)C(N)=O [PRE 4, Ac-KDAQNLIGISI-NH2] (Ac-KDAQNLIGISI-NH2)	prevented translocation of PKC-α to the membrane	Band Intensity (PKC-α [3]; [6]): 0.0; Band Intensity (PKC-βI; 100 μg): 112.5; Band Intensity (PKC-βI; 200 μg): 0.0; Band Intensity (PKC-βI; 300 μg): 0.0
–	–	–	1.040	0.771	–	–	–	–	–	–	–	–	–	–	–	–	–	–	RRKKGGKDFVVKR [PRE 1]	–	Inhibition (%) (PKC-α [1]; 75 μg): 50.2%; Relative Intensity (%) (PKC-α [1]; 75 μg): 49.8%; Inhibition (%) (PKC-α [1]; 300 μg): 63.1%; Relative Intensity (%) (PKC-α [1]; 300 μg): 36.9%; Band Intensity (PKC-β; 75 μg): 0.825; Inhibition (%) (PKC-β; 75 μg): 28.9%; Relative Intensity (%) (PKC-β; 75 μg): 71.1%; Band Intensity (PKC-β; 300 μg): 0.528; Inhibition (%) (PKC-β; 300 μg): 54.5%; Relative Intensity (%) (PKC-β; 300 μg): 45.5%
